Experimental data reported in paper PMC5418314, “First-in-human phase I study of SOR-C13, a TRPV6 calcium channel inhibitor, in patients with advanced solid tumors” (Investigational New Drugs, 2017).
Where two headings read alike, the source gives them in different places. Ends that are not written are not given here.

Assay: Phase I plasma pharmacokinetics
Format: in vivo, human
Conditions: plasma LC-MS; for AUC(0-t) / Cmax / Tmax: plasma
Procedure: Blood samples were taken on Days 1, 3, 8 and 10 of Cycle 1 to assess the pharmacokinetic (PK) profile of SOR-C13 at the various doses used. Plasma samples for the IV 20 min infusion were taken at pre-infusion, 5, 15 min after the start of infusion and post-infusion at 2, 5, 10 and 30 min and 1, 4 h. Plasma samples for SOR-C13 analysis for the 90 min infusion were taken pre-infusion, at 5, 15 and 45 min after the start of infusion, and at 2, 5, 10 and 30 min post-infusion. Since the infusion for the majority of patients, and further studies will be IV 90 min only PK data for this infusion time are presented. Validated liquid chromatography-mass spectrometry analysis provided the plasma concentration/time data.

[1] = Cohort 3: 1.375 mg/kg, N = 3, 90-min IV infusion, Cycle 1 Day 8

With KEFLHPSKVDLPR [SOR-C13] the “time after start of infusion by which steady state was achieved” value (90-min infusion) was ≤ 15 min, the “Peak plasma concentration, Median” value (Cohort 3: 1.375 mg/kg, N = 3, 90-min IV infusion, Cycle 1 Day 1) was 252.50 ng/mL and the “Peak plasma concentration, Mean (SD)” value [1] was 251.03 (75.53) ng/mL. The “Time to peak plasma concentration, Median” value (“Time … Median” below) [1] was 0.750 h, the “Time … Median” value (Cohort 4: 2.75 mg/kg, N = 6, 90-min IV infusion, Cycle 1 Day 3) was 0.750 h and the “Time … Median” value (Cohort 5: 4.13 mg/kg, N = 3, 90-min IV infusion, Cycle 1 Day 10) was 0.250 h. The “Time … Median” value (Cohort 6: 6.2 mg/kg, N = 6, 90-min IV infusion, Cycle 1 Day 8) was 0.750 h, the half-life (human, iv, patients, 90-min infusion, read-out: elimination half-life (Thalf), estimated overall) was < 5 min and the AUC(0-t) (human, iv, 1.375 mg/kg, Cohort 3: 1.375 mg/kg, N = 3, 90-min IV infusion, Cycle 1 Day 1, read-out: AUCtau, Mean (SD)) was 256 ng·h/mL. The AUC(0-t) (human, iv, 1.375 mg/kg, Cohort 3: 1.375 mg/kg, N = 3, 90-min IV infusion, Cycle 1 Day 1, read-out: AUCtau, Median) was 263 ng·h/mL, the Cmax (human, iv, 1.375 mg/kg, Cohort 3: 1.375 mg/kg, N = 3, 90-min IV infusion, Cycle 1 Day 1, read-out: Peak plasma concentration, Mean (SD)) was 244 ng/mL and the Tmax (human, iv, 1.375 mg/kg, Cohort 3: 1.375 mg/kg, N = 3, 90-min IV infusion, Cycle 1 Day 1, read-out: Time to peak plasma concentration, Mean (SD)) was 31.6 min. For the same sequence, the Tmax (human, iv, 1.375 mg/kg, Cohort 3: 1.375 mg/kg, N = 3, 90-min IV infusion, Cycle 1 Day 1, read-out: Time to peak plasma concentration, Median) was 45 min, the AUC(0-t) (human, iv, 1.375 mg/kg, Cohort 3: 1.375 mg/kg, N = 3, 90-min IV infusion, Cycle 1 Day 3, read-out: AUCtau, Mean (SD)) was 148 ng·h/mL and the AUC(0-t) (human, iv, 1.375 mg/kg, Cohort 3: 1.375 mg/kg, N = 3, 90-min IV infusion, Cycle 1 Day 3, read-out: AUCtau, Median) was 168 ng·h/mL. The Cmax (human, iv, 1.375 mg/kg, Cohort 3: 1.375 mg/kg, N = 3, 90-min IV infusion, Cycle 1 Day 3, read-out: Peak plasma concentration, Mean (SD)) was 193 ng/mL, the Cmax (human, iv, 1.375 mg/kg, Cohort 3: 1.375 mg/kg, N = 3, 90-min IV infusion, Cycle 1 Day 3, read-out: Peak plasma concentration, Median) was 160 ng/mL and the Tmax (human, iv, 1.375 mg/kg, Cohort 3: 1.375 mg/kg, N = 3, 90-min IV infusion, Cycle 1 Day 3, read-out: Time to peak plasma concentration, Mean (SD)) was 11.6 min. For the same sequence, the Tmax (human, iv, 1.375 mg/kg, Cohort 3: 1.375 mg/kg, N = 3, 90-min IV infusion, Cycle 1 Day 3, read-out: Time to peak plasma concentration, Median) was 15 min, the AUC(0-t) (human, iv, 1.375 mg/kg, Cohort 3: 1.375 mg/kg, N = 3, 90-min IV infusion, Cycle 1 Day 8, read-out: AUCtau, Mean (SD)) was 220 ng·h/mL and the AUC(0-t) (human, iv, 1.375 mg/kg, Cohort 3: 1.375 mg/kg, N = 3, 90-min IV infusion, Cycle 1 Day 8, read-out: AUCtau, Median) was 230 ng·h/mL. The Cmax (human, iv, 1.375 mg/kg, Cohort 3: 1.375 mg/kg, N = 3, 90-min IV infusion, Cycle 1 Day 8, read-out: Peak plasma concentration, Median) was 237 ng/mL, the Tmax (human, iv, 1.375 mg/kg, Cohort 3: 1.375 mg/kg, N = 3, 90-min IV infusion, Cycle 1 Day 8, read-out: Time to peak plasma concentration, Mean (SD)) was 47.2 min and the AUC(0-t) (human, iv, 1.375 mg/kg, Cohort 3: 1.375 mg/kg, N = 3, 90-min IV infusion, Cycle 1 Day 10, read-out: AUCtau, Mean (SD)) was 184 ng·h/mL. The AUC(0-t) (human, iv, 1.375 mg/kg, Cohort 3: 1.375 mg/kg, N = 3, 90-min IV infusion, Cycle 1 Day 10, read-out: AUCtau, Median) was 215 ng·h/mL, the Cmax (human, iv, 1.375 mg/kg, Cohort 3: 1.375 mg/kg, N = 3, 90-min IV infusion, Cycle 1 Day 10, read-out: Peak plasma concentration, Mean (SD)) was 224 ng/mL and the Cmax (human, iv, 1.375 mg/kg, Cohort 3: 1.375 mg/kg, N = 3, 90-min IV infusion, Cycle 1 Day 10, read-out: Peak plasma concentration, Median) was 181 ng/mL. For the same sequence, the Tmax (human, iv, 1.375 mg/kg, Cohort 3: 1.375 mg/kg, N = 3, 90-min IV infusion, Cycle 1 Day 10, read-out: Time to peak plasma concentration, Mean (SD)) was 35 min, the AUC(0-t) (human, iv, 2.75 mg/kg, Cohort 4: 2.75 mg/kg, N = 6, 90-min IV infusion, Cycle 1 Day 1, read-out: AUCtau, Mean (SD)) was 435 ng·h/mL and the AUC(0-t) (human, iv, 2.75 mg/kg, Cohort 4: 2.75 mg/kg, N = 6, 90-min IV infusion, Cycle 1 Day 1, read-out: AUCtau, Median) was 103 ng·h/mL. The Cmax (human, iv, 2.75 mg/kg, Cohort 4: 2.75 mg/kg, N = 6, 90-min IV infusion, Cycle 1 Day 1, read-out: Peak plasma concentration, Mean (SD)) was 524 ng/mL, the Cmax (human, iv, 2.75 mg/kg, Cohort 4: 2.75 mg/kg, N = 6, 90-min IV infusion, Cycle 1 Day 1, read-out: Peak plasma concentration, Median) was 194 ng/mL and the Tmax (human, iv, 2.75 mg/kg, Cohort 4: 2.75 mg/kg, N = 6, 90-min IV infusion, Cycle 1 Day 1, read-out: Time to peak plasma concentration, Mean (SD)) was 39.9 min. The Tmax (human, iv, 2.75 mg/kg, Cohort 4: 2.75 mg/kg, N = 6, 90-min IV infusion, Cycle 1 Day 1, read-out: Time to peak plasma concentration, Median) was 45 min, the AUC(0-t) (human, iv, 2.75 mg/kg, Cohort 4: 2.75 mg/kg, N = 6, 90-min IV infusion, Cycle 1 Day 3, read-out: AUCtau, Mean (SD)) was 365 ng·h/mL and the AUC(0-t) (human, iv, 2.75 mg/kg, Cohort 4: 2.75 mg/kg, N = 6, 90-min IV infusion, Cycle 1 Day 3, read-out: AUCtau, Median) was 250 ng·h/mL. For the same sequence, the Cmax (human, iv, 2.75 mg/kg, Cohort 4: 2.75 mg/kg, N = 6, 90-min IV infusion, Cycle 1 Day 3, read-out: Peak plasma concentration, Mean (SD)) was 374 ng/mL, the Cmax (human, iv, 2.75 mg/kg, Cohort 4: 2.75 mg/kg, N = 6, 90-min IV infusion, Cycle 1 Day 3, read-out: Peak plasma concentration, Median) was 265 ng/mL and the Tmax (human, iv, 2.75 mg/kg, Cohort 4: 2.75 mg/kg, N = 6, 90-min IV infusion, Cycle 1 Day 3, read-out: Time to peak plasma concentration, Mean (SD)) was 40.3 min. It also gave an AUC(0-t) (human, iv, 2.75 mg/kg, Cohort 4: 2.75 mg/kg, N = 6, 90-min IV infusion, Cycle 1 Day 8, read-out: AUCtau, Mean (SD)) of 215 ng·h/mL, an AUC(0-t) (human, iv, 2.75 mg/kg, Cohort 4: 2.75 mg/kg, N = 6, 90-min IV infusion, Cycle 1 Day 8, read-out: AUCtau, Median) of 247 ng·h/mL and a Cmax (human, iv, 2.75 mg/kg, Cohort 4: 2.75 mg/kg, N = 6, 90-min IV infusion, Cycle 1 Day 8, read-out: Peak plasma concentration, Mean (SD)) of 239 ng/mL. The Cmax (human, iv, 2.75 mg/kg, Cohort 4: 2.75 mg/kg, N = 6, 90-min IV infusion, Cycle 1 Day 8, read-out: Peak plasma concentration, Median) was 282 ng/mL, the Tmax (human, iv, 2.75 mg/kg, Cohort 4: 2.75 mg/kg, N = 6, 90-min IV infusion, Cycle 1 Day 8, read-out: Time to peak plasma concentration, Mean (SD)) was 21.6 min and the Tmax (human, iv, 2.75 mg/kg, Cohort 4: 2.75 mg/kg, N = 6, 90-min IV infusion, Cycle 1 Day 8, read-out: Time to peak plasma concentration, Median) was 15 min. The AUC(0-t) (human, iv, 2.75 mg/kg, Cohort 4: 2.75 mg/kg, N = 6, 90-min IV infusion, Cycle 1 Day 10, read-out: AUCtau, Mean (SD)) was 274 ng·h/mL, the AUC(0-t) (human, iv, 2.75 mg/kg, Cohort 4: 2.75 mg/kg, N = 6, 90-min IV infusion, Cycle 1 Day 10, read-out: AUCtau, Median) was 192 ng·h/mL and the Cmax (human, iv, 2.75 mg/kg, Cohort 4: 2.75 mg/kg, N = 6, 90-min IV infusion, Cycle 1 Day 10, read-out: Peak plasma concentration, Mean (SD)) was 290 ng/mL. It also gave a Cmax (human, iv, 2.75 mg/kg, Cohort 4: 2.75 mg/kg, N = 6, 90-min IV infusion, Cycle 1 Day 10, read-out: Peak plasma concentration, Median) of 232 ng/mL, a Tmax (human, iv, 2.75 mg/kg, Cohort 4: 2.75 mg/kg, N = 6, 90-min IV infusion, Cycle 1 Day 10, read-out: Time to peak plasma concentration, Mean (SD)) of 36.6 min and a Tmax (human, iv, 2.75 mg/kg, Cohort 4: 2.75 mg/kg, N = 6, 90-min IV infusion, Cycle 1 Day 10, read-out: Time to peak plasma concentration, Median) of 30 min. The AUC(0-t) (human, iv, 4.13 mg/kg, Cohort 5: 4.13 mg/kg, N = 3, 90-min IV infusion, Cycle 1 Day 1, read-out: AUCtau, Mean (SD)) was 78.4 ng·h/mL and the AUC(0-t) (human, iv, 4.13 mg/kg, Cohort 5: 4.13 mg/kg, N = 3, 90-min IV infusion, Cycle 1 Day 1, read-out: AUCtau, Median) was 23.4 ng·h/mL.
